Reference: patent US20200239530A1, “COMPOUNDS AND METHODS OF MODULATING PROTEIN DEGRADATION” (Vividion Therapeutics, Inc., priority 2017, published 2020)

Assays:
[1] = biological target: T1, cysteine residue illustrated in Table 1A or Table 2A (Homo sapiens, UniProt Q5H9S7); assay: Competitive cysteine profiling of cell lysate with desthiobiotin iodoacetamide probe (96-well sample prep); format: binding; details: UniProt Q5H9S7; 100 uM
T1 construct: Cells were resuspended in cold PBS on ice and sonicated with a probe sonicator to achieve lysis; endogenous in cells
T1 sequence (Q5H9S7 1-520): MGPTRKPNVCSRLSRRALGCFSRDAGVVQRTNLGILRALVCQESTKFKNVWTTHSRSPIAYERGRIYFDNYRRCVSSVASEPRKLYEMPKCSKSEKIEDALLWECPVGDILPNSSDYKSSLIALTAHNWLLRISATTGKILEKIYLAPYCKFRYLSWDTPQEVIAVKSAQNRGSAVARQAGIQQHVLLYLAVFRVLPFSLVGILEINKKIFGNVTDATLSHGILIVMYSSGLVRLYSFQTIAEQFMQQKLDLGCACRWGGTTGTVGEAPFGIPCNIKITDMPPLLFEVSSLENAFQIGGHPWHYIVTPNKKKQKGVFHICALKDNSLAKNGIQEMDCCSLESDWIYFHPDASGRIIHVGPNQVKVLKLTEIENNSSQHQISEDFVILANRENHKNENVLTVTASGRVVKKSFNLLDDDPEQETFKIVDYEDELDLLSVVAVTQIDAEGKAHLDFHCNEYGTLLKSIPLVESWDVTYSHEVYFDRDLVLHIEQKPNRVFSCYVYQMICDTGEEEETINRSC
Protocol: In some embodiments, the solution sample (e.g., cell sample, cell lysate sample, or comprising isolated proteins) is incubated with a compound of Formula (I) for analysis of protein-probe interactions. In some instances, the solution sample (e.g., cell sample, cell lysate sample, or comprising isolated proteins) is further incubated in the presence of an additional compound probe prior to addition of the compound of Formula (I). […] In such instances, the solution sample is incubated with a probe and a ligand for competitive protein profiling analysis.
(§1) The following 96-well sample prep protocol was used for sample preparation.
Cells were resuspended in cold PBS on ice and sonicated with a probe sonicator to achieve lysis. 200 μL of lysate containing 5 mg/ml proteome was treated with 2 μL of 100× compound stock in a 2-mL deep-well plate. The treated lysate was subsequently incubate at 25° C. for 1 hr with shaking at 600 rpm. The treated lysate was further incubated with 2 μL of 10 mM desthiobiotin iodoacetamide probe at 25° C. for 1 hr with shaking at 600 rpm. Next, the lysate was further treat with 20 μL of solution of PBS containing 11 mM MgSO4 and 2.5% Turbonuclease stock and incubated at 25° C. for 20 minutes with shaking at 600 rpm. 1.7 mL ice-cold acetone was added to each well and incubated at −20° C. for 2 hr, followed by max speed (4200 rpm) spin for 45 min. Acetone was then decanted and the plates were blotted to remove acetone. The plates were then dried in open air for 20 minutes. After drying, the plates were then covered with foil seal and stored at −80° C. overnight.
The next day, samples were re-suspended in 90 μL of solution of 9M urea, 50 mM ammonium bicarbonate and 10 mM DTT by incubating at 65C for 20 min with shaking at 1500 rpm. Next, samples were cooled to 37° C. and then 10 μL of 500 mM iodoacetamide solution (92.48 mg/ml) was added. The samples were then incubated at 37° C. for 30 min with shaking at 600 rpm.
ZEBA desalting plates were equilibrated 4 times using 250 μL of 2M urea, 50 mM ammonium bicarbonate solution followed by centrifugation at 1500 rpm for 2 minutes. After equilibration was complete, samples were applied to ZEBA desalting plate and spin at 1500 rpm for 2 min on top of 1 mL 96-well deep-well collection plate to buffer exchange samples. 4 μL of solution containing 25 mM CaCl2 and 0.25 mg/mL trypsin was added to the plate and the plate was then incubated at 37° C. for 2 hrs with shaking at 600 rpm. 300 μL of solution containing 5% high-capacity streptavidin agarose slurry in 25 mM Tris-HCl pH 7.5, 150 mM NaCl, and 0.1% NP-40 then added. The plate was incubated at 25° C. for 2 hrs with shaking at 600 rpm. Samples were transferred to 25 μm filter plate and spin at 1000 rpm for 2 min. Samples were then washed 3 times with 0.75 mL of wash buffer (25 mM Tris-HCl pH 7.5, 150 mM NaCl, and 0.1% NP-40) followed by washing 3 times with 0.75 mL PBS, and then 4 times with 0.75 mL water. After the washing step, samples were eluted into polypropylene 96-well plate by addition of 250 µL of 50% MeCN/water, 0.1% formic acid and allowed to gravity drip for 10 min, followed by centrifugation at 1000 rpm for 2 min. Speedvac was used to dry the plates at about 45° C. for […]. Then the plates were covered with foil seal and stored at −20° C.
Samples were resuspended by addition of 20 μl of 12.5% ACN, 0.1% formic acid solution, covered with foil seal, and incubated at 42° C. for 10 minutes with shaking at 600 rpm. Then add 30 μL of 0.1% formic acid solution was added and the plate was covered and incubated at 42° C. for 10 minutes with shaking at 600 rpm. Seal plate was then sealed with a 96-well silicon mat for analysis.

UniProt Q9Y252 = biological target: T2, UniProt Q9Y252 (Homo sapiens, UniProt Q9Y252); assay: Cysteine liganding, probe competition; format: binding; details: for inhibition at 500 µM: read-out: percent_inhibition
T2 construct: 200 μL of lysate containing 5 mg/ml proteome was treated with 2 μL of 100× compound stock; endogenous in cells
T2 sequence (Q9Y252 1-685): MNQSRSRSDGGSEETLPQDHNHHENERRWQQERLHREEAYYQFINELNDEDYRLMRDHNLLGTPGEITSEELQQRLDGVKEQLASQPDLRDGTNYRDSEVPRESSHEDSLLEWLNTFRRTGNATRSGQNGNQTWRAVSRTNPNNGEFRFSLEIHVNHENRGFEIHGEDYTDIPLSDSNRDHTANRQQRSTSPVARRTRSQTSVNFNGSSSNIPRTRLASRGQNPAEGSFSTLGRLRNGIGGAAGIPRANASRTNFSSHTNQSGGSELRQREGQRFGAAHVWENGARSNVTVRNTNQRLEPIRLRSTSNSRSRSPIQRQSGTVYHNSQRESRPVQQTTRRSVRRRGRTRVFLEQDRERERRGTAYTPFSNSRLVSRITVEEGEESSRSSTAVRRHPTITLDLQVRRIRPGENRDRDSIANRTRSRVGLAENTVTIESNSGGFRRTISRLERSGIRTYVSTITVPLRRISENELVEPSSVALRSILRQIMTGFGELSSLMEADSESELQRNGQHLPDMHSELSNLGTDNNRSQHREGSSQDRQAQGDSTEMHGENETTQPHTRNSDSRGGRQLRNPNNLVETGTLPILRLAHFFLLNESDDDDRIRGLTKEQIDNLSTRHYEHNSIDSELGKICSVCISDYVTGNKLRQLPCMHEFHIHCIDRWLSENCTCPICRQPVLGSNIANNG
Excerpt: as §1

KB05_100 uM_percent_inhibition [1]	Structure (SMILES)	inhibition at 500 µM (UniProt Q9Y252)	KB03_100 uM_percent_inhibition [1]	percent_inhibition (UniProt Q9Y252; 500 uM)	KB02_100 uM_percent_inhibition [1]
54%	C=CC(=O)N(c1ccccc1)c1ccc(Br)cc1 [KB05]	51%	–	–	–
–	O=C(CCl)Nc1cc(C(F)(F)F)cc(C(F)(F)F)c1 [KBO3]	–	39%	9%	–
–	COc1ccc2c(c1)CCCN2C(=O)CCl [KB02]	38%	–	–	69%
